Test results taken from US4377587A, “Arylamine derivatives and use thereof as microbicides” (Ciba-Geigy Corporation, priority 1980, dated 1983).
≈ marks a conversion by molar mass, not a printed value.

Columns and labels:
[1] = tested on: Podosphaera leucotricha; experiment: Residual-protective action against Podosphaera leucotricha on apples; type: in vivo; settings: apple seedlings, spray 0.06% of active ingredient, evaluated 12 days after infection
Method: Residual-protective action against Podosphaera leucotricha on apples
Apple seedlings in the 5-leaf stage are sprayed with a spray mixture (0.06% of active ingredient) prepared from a wettable powder formulation of the active ingredient. After 24 hours the treated plants are infected with a conidia suspension of the fungus and placed in a climatic chamber at 70% relative humidity and 20° C. Evaluation of fungus infestation is made 12 days after infection.

[2] = tested on: Pythium debaryanum; experiment: Action on Pythium debaryanum on sugar beets, (b) after seed dressing application; type: in vivo; settings: sugar beet, seed dressing 0.06%, 2-3 weeks at c. 20° C.
Method: (§1) Action on Pythium debaryanum on sugar beets
(b) Action after seed dressing application
The fungus is cultivated on carrot chip nutrient solution and added to a mixture of earth and sand. Flower pots are filled with the infected soil and sugar beet seeds which have been treated with the test preparations formulated as seed dressing powders are sown therein (0.06% of one of the compounds of Tables 1 and 2). The pots are then stood in a greenhouse for 2-3 weeks at c. 20° C. The soil is kept uniformly moist by gently spraying it with water. The emergence of the sugar beet plants is ascertained in evaluating the test.

[3] = tested on: Phytophthora infestans; type: in vivo, Phytophthora infestans (on tomato plants); settings: tomato, spray 0.06% active ingredient, infested after 24 hours, evaluated after 5 days at 20° C.
[4] = tested on: Pythium debaryanum; experiment: Action on Pythium debaryanum on sugar beets, (a) after soil application; type: in vivo; settings: sugar beet, 20 ppm of active ingredient based on volume of soil, 2-3 weeks at 20°-24° C.
Text: as §1
(a) Action after soil application
The fungus is cultivated on carrot chips nutrient solution and added to a mixture of earth and sand. Flower pots are filled with the infected soil, in which sugar beet seeds are then sown. Immediately after sowing, the test preparations formulated as wettable powders are poured in the form of aqueous suspensions over the soil (20 ppm of active ingredient, based on the volume of the soil). The pots are then stood for 2-3 weeks in a greenhouse at 20°-24° C. The soil is kept uniformly moist by gently spraying it with water. The emergence of the sugar beet plants as well as the number of healthy and sick plants are ascertained in evaluating the test.

[5] = tested on: Phytophthora infestans; type: in vivo, Phytophthora infestans (on tomato plants); settings: tomato, sprayed 0.06% active ingredient 22 hours after infestation, evaluated 5 days after infestation
[6] = tested on: Erysiphe graminis; experiment: Action against Erysiphe graminis on barley, residual protective action; type: in vivo, Erysiphe graminis (on barley plants); settings: 0.02% active ingredient sprayed, infected after 3-4 hours, evaluated after 10 days
Method: Action against Erysiphe graminis on barley
Residual protective action
Barley plants about 8 cm in height are sprayed with a spray mixture (0.02% of active ingredient) prepared from the active ingredient formulated as a wettable powder. The treated plants are dusted with conidia of the fungus after 3-4 hours. The infected barley plants are then stood in a greenhouse at about 22° C. The extent of the fungus infection is evaluated after 10 days.

[7] = Water solubility; type: physicochemical; settings: 25° C.
Text: Determination of physico-chemical data
(a) Reduced water solubility

| Compound | emergent plants (fully effective against Pythium pathogens), seed dressing application [2] | fungus attack compared with untreated control plants (100% attack), residual-protective [3] | emergent plants (fully effective against Pythium pathogens), soil application [4] | fungus attack compared with untreated and infected control plants (100% attack), residual curative [5] | also measured |
| --- | --- | --- | --- | --- | --- |
| COCC(=O)N(c1c(N)cccc1Cl)C(C)C(=O)OC (centres unmarked) [Compound 6] | over 90% | less than 10% | over 90% | less than 10% | fungus attack compared with untreated and infected control seedlings (100% attack) [1]: less than 10% |
| COC(=O)C(C)N(C(=O)CS(C)(=O)=O)c1c(C)ccc(N)c1C (centres unmarked) [Compound 14] |  | less than 10% |  |  |  |
| COCC(=O)N(c1c(C)cc(C)c([N+](=O)[O-])c1C)C(C)C(=O)OC (centres unmarked) [Compound 29] | over 90% | less than 10% | over 90% | less than 10% |  |
| COC(=O)C(C)N(C(=O)C1CCCO1)c1c(C)ccc([N+](=O)[O-])c1C (centres unmarked) [Compound 35] |  | less than 10% |  |  |  |
| COC(=O)C(C)N(C(=O)CS(C)(=O)=O)c1c(C)ccc([N+](=O)[O-])c1C (centres unmarked) [Compound 38] |  | less than 10% |  |  | fungus attack compared with control plants (100% attack) [6]: less than 10% |
| COCC(=O)N(c1c(Cl)cccc1[N+](=O)[O-])C(C)C(=O)OC (centres unmarked) [Compound 57] |  | less than 10% |  |  |  |
| COCC(=O)N(c1c([N+](=O)[O-])ccc(C)c1C)C(C)C(=O)OC (centres unmarked) [Compound 59, N-(1'methoxycarbonylethyl)-N-methoxyacetyl-2,3-dimethyl-6-nitroaniline] | over 90% | less than 10% | over 90% | less than 10% |  |
| CCOCC(=O)N(c1c(C)ccc([N+](=O)[O-])c1C)C(C)C(=O)OC(C)C (centres unmarked) [Compound 73] | over 90% | less than 10% | over 90% |  | fungus attack compared with untreated and infected control seedlings (100% attack) [1]: less than 10% |
| CCOC(=O)C(C)N(C(=O)COC)c1c(C)ccc([N+](=O)[O-])c1C (centres unmarked) [Compound 74] |  | less than 10% |  | less than 10% |  |
| COCC(=O)N(c1c(C)cc([N+](=O)[O-])c(C)c1C)C(C)C(=O)OC (centres unmarked) [Compound 78] |  | less than 10% |  |  |  |
| CCOCC(=O)N(c1c(Cl)ccc(N)c1C)C(C)C(=O)OC (centres unmarked) [Compound 88] |  | less than 10% |  |  |  |
| CCOCC(=O)N(c1cccc([N+](=O)[O-])c1C)C(C)C(=O)OC (centres unmarked) [Compound 104] |  |  |  |  | fungus attack compared with control plants (100% attack) [6]: less than 10% |
| CCOCC(=O)N(c1c(Cl)ccc([N+](=O)[O-])c1C)C(C)C(=O)OC (centres unmarked) [Compound 107] | over 90% |  | over 90% | less than 10% | fungus attack compared with control plants (100% attack) [6]: less than 10% |
| C=CCN(C(=O)COC)c1c(C)ccc([N+](=O)[O-])c1C [Compound 111] |  | less than 10% |  |  |  |
| C#CCN(C(=O)COC)c1c(C)ccc([N+](=O)[O-])c1C [Compound 117] |  | less than 10% |  |  |  |
| C#CCN(C(=O)COCC)c1c(C)ccc([N+](=O)[O-])c1C [Compound 122] |  | less than 10% |  |  |  |
| COC(=O)C(C)N(C(=O)C1CC1)c1ccc([N+](=O)[O-])cc1Cl (centres unmarked) [Compound 138] |  | less than 10% |  |  |  |
| COC(=O)C(C)N(C(=O)C1CC1)c1ccc(N)cc1Cl (centres unmarked) [Compound 139] |  | less than 10% |  |  |  |
| COCC(=O)N(c1c(C)c(C)c([N+](=O)[O-])c(C)c1C)C(C)C(=O)OC (centres unmarked) [Compound 141] |  | less than 10% |  | less than 10% |  |
| CCOCC(=O)N(c1c(C)c(C)c([N+](=O)[O-])c(C)c1C)C(C)C(=O)OC (centres unmarked) [Compound 142] |  | less than 10% |  | less than 10% | fungus attack compared with control plants (100% attack) [6]: less than 10% |
| COC(=O)C(C)N(C(=O)C1CCCO1)c1c(C)c(C)c([N+](=O)[O-])c(C)c1C (centres unmarked) [Compound 144] |  | less than 10% |  |  |  |
| COCC(=O)N(c1c(C)c(C)c(N)c(C)c1C)C(C)C(=O)OC (centres unmarked) [Compound 158] | over 90% | less than 10% | over 90% |  |  |
| CCOCC(=O)N(c1c(C)c(C)c(N)c(C)c1C)C(C)C(=O)OC (centres unmarked) [Compound 159] |  | less than 10% |  |  |  |
| COC(=O)C(C)N(C(=O)COC(C)C)c1c(C)c(C)c(N)c(C)c1C (centres unmarked) [Compound 160] | over 90% |  | over 90% |  |  |
| COC(=O)C(C)N(C(=O)C1CCCO1)c1c(C)c(C)c(N)c(C)c1C (centres unmarked) [Compound 161] |  | less than 10% |  | less than 10% |  |
| COCC(=O)N(c1c([N+](=O)[O-])ccc2ccccc12)C(C)C(=O)OC (centres unmarked) [Compound 400, N-(1'methoxycarbonylethyl)-N-methoxyacetyl-2-nitronaphthylamine] | over 90% | less than 10% | over 90% | less than 10% |  |
| COCC(=O)N(c1c(C)cc([N+](=O)[O-])c2ccccc12)C(C)C(=O)OC (centres unmarked) [Compound 606] | over 90% | less than 10% | over 90% | less than 10% | fungus attack compared with untreated and infected control seedlings (100% attack) [1]: less than 10% |
| COC(=O)C(C)N(C(=O)C1CCCO1)c1c(C)cc([N+](=O)[O-])c2ccccc12 (centres unmarked) [Compound 607] | over 90% | less than 10% | over 90% |  |  |
| COCC(=O)N(c1ccc([N+](=O)[O-])c2ccccc12)C(C)C(=O)OC (centres unmarked) [Compound 611] |  | less than 10% |  | less than 10% |  |
| COCC(=O)N(c1c(C)cccc1C)[C@@H](C)C(=O)OC [Metalaxyl, N-(2,6-dimethylphenyl)-N-(2'-methoxyacetyl)alanine methyl ester, reference compound] |  |  |  |  | solubility [7]: 800 µg/mL (≈ 2860 µM) |
